Source: ChEMBL document CHEMBL5226279, “Mercaptoacetamide: A promising zinc-binding group for the discovery of selective histone deacetylase 6 inhibitors” (Eur J Med Chem, 2021)
Converted amounts (≈) assume the structure as drawn. Values belong to the compound of their own block, whether it stands above or below them.

Key:
[1] = Tmax in mouse at 400 mg/kg, ip; type: ADME, organism-based; conditions: in vivo
[2] = Stability in rat liver microsomes assessed as half life; type: ADME, Microsome
N2a [3] = test: Antialzheimer activity in mouse N2a cells overexpressing hAPP assessed as reduction in human amyloid beta 42 level at 1 to 5 uM incubated for 24 hrs by ELISA relative to control; type: functional; parameters: scale not given: the % may be the effect or the level left; conditions: dose 1-5 µM
[4] = Apparent permeability across apical to basolateral side in human Caco-2 cells; type: ADME, cell-based
[5] = AUC in mouse at 400 mg/kg, ip; type: ADME, organism-based; parameters: dose 400 mg/kg, route ip; conditions: in vivo
[6] = Antialzheimer activity in rat Primary cortical neurons assessed as reduction in amyloid beta 40 level incubated for 24 hrs by ELISA relative to control; type: functional, Cortical neurone; parameters: scale not given: the % may be the effect or the level left
[7] = Lipophilicity, logD of the compound at 37 degreeC; type: physicochemical; conditions: octanol/water
[8] = Apparent permeability across basolateral to apical side in human Caco-2 cells; type: ADME, cell-based
[9] = Clearance in mouse at 400 mg/kg, ip; type: ADME, organism-based; conditions: in vivo
[10] = Solubility of compound in PBS at pH 7.4 at 37 degreeC measured after 24 hrs; type: physicochemical
[11] = Stability in mouse plasma assessed as half life; type: ADME, cell-free
[12] = Stability in porcine plasma assessed as half life; type: ADME, cell-free, Sus scrofa; conditions: pig
[13] = Half life in mouse at 400 mg/kg, ip; type: ADME, organism-based; conditions: in vivo
[14] = Stability in rat plasma assessed as half life; type: ADME, cell-free
[15] = Solubility of compound in HCl at pH 1.2 at 37 degreeC measured after 24 hrs; type: physicochemical
N2a [16] = test: Antialzheimer activity in mouse N2a cells overexpressing hAPP assessed as reduction in human amyloid beta 40 level at 1 to 5 uM incubated for 24 hrs by ELISA relative to control; type: functional; parameters: scale not given: the % may be the effect or the level left; conditions: dose 1-5 µM
[17] = Stability in human plasma assessed as half life; type: ADME, cell-free
[18] = target: T1, Protein deacetylase HDAC6 (Homo sapiens, UniProt Q9UBN7); test: Inhibition of HDAC6 (unknown origin)
T1 sequence (Q9UBN7 whole entry): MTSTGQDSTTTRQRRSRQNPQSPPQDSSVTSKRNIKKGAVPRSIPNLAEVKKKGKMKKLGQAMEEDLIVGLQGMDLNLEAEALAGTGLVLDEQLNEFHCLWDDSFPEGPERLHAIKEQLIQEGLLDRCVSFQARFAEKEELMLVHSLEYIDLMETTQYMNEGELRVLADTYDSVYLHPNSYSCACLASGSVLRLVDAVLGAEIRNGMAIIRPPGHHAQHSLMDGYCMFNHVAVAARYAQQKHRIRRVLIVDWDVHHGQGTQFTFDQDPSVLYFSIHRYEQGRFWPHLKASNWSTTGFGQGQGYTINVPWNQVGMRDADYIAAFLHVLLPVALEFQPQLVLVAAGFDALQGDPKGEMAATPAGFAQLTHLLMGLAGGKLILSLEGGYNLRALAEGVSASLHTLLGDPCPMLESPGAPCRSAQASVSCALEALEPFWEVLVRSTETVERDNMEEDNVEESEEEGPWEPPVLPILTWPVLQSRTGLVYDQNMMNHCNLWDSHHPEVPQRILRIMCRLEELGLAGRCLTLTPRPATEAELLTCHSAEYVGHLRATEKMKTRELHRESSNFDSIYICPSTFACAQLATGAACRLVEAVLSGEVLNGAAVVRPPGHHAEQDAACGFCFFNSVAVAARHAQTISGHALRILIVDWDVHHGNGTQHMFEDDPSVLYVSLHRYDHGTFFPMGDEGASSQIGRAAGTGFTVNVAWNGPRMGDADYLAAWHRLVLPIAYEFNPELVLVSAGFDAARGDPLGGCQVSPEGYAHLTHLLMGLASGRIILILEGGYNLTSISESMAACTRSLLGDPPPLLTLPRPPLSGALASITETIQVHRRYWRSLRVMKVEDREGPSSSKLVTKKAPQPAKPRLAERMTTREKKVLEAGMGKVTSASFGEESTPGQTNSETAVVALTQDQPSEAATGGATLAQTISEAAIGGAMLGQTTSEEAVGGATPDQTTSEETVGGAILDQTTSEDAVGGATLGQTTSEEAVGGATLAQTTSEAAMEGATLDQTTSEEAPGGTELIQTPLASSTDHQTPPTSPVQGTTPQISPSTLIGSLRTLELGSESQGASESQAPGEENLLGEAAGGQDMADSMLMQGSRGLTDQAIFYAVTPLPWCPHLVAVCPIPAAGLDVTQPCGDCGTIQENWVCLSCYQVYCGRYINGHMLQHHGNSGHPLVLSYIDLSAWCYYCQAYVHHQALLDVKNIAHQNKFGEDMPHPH

[19] = Cmax in mouse at 400 mg/kg, ip; type: ADME, organism-based; parameters: dose 400 mg/kg, route ip; conditions: in vivo
[20] = Stability in human liver microsomes assessed as half life; type: ADME, Microsome
[21] = Stability in dog liver microsomes assessed as half life; type: ADME, Canis lupus familiaris, Microsome
Histone deacetylase 8 [22] = target: T2, Histone deacetylase 8 (Homo sapiens, UniProt Q9BY41); test: Inhibition of human HDAC8 incubated for 90 mins by fluorescence assay
T2 sequence (Q9BY41 whole entry): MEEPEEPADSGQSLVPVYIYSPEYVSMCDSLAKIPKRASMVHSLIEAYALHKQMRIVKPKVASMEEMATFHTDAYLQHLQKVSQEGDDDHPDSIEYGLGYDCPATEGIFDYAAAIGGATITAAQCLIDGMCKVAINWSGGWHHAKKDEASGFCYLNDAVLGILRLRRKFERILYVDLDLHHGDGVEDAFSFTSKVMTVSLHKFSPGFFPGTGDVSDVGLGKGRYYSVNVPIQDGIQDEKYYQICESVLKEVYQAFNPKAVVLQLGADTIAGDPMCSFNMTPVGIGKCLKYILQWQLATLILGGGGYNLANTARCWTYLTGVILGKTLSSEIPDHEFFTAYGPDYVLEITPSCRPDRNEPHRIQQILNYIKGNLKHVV

Histone deacetylase 1 [23] = target: T3, Histone deacetylase 1 (Homo sapiens, UniProt Q13547); test: Inhibition of human HDAC1
[24] = target: T1, Protein deacetylase HDAC6; test: Inhibition of human HDAC6
Histone deacetylase 3 = Histone deacetylase 3 (Homo sapiens, UniProt O15379); test: Inhibition of human HDAC3 using FAM-labeled acetylated peptide as substrate incubated for 17 hrs by fluorescence based assay
[25] = target: T1, Protein deacetylase HDAC6; test: Inhibition of human HDAC6 using FAM-labeled acetylated peptide as substrate incubated for 17 hrs by fluorescence based assay
Histone deacetylase 1 [26] = target: T3, Histone deacetylase 1; test: Inhibition of human HDAC1 using FAM-labeled acetylated peptide as substrate incubated for 17 hrs by fluorescence based assay
[27] = target: T4, Polyamine deacetylase HDAC10 (Homo sapiens, UniProt Q969S8); test: Inhibition of human HDAC10 using FAM-labeled acetylated peptide as substrate incubated for 17 hrs by fluorescence based assay
T4 sequence (Q969S8 whole entry): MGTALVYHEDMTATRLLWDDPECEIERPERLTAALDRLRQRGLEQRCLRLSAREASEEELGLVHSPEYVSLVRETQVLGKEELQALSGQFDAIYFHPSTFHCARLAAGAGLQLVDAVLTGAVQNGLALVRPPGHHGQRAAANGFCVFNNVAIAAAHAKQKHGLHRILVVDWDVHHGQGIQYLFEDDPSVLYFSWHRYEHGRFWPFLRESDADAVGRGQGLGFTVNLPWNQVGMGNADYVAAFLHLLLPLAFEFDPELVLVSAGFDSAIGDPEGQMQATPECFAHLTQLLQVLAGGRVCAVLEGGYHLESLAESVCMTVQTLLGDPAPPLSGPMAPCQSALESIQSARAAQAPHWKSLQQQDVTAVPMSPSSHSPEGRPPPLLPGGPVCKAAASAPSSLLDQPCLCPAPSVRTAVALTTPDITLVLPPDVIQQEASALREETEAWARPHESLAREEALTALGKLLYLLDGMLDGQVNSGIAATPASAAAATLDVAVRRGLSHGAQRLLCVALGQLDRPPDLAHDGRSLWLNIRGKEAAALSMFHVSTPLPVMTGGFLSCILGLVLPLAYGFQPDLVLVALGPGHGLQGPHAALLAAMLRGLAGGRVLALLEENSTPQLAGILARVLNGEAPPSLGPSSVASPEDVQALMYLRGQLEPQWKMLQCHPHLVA

Histone deacetylase 2 = Histone deacetylase 2 (Homo sapiens, UniProt Q92769); test: Inhibition of human HDAC2 using FAM-labeled acetylated peptide as substrate incubated for 17 hrs by fluorescence based assay
Histone deacetylase 8 [28] = target: T2, Histone deacetylase 8; test: Inhibition of human HDAC8 using FAM-labeled acetylated peptide as substrate incubated for 17 hrs by fluorescence based assay
Histone deacetylase 7 = target: T5, Histone deacetylase 7 (Homo sapiens, UniProt Q8WUI4); test: Inhibition of human recombinant HDAC7 incubated for 17 hrs
T5 sequence (Q8WUI4 whole entry): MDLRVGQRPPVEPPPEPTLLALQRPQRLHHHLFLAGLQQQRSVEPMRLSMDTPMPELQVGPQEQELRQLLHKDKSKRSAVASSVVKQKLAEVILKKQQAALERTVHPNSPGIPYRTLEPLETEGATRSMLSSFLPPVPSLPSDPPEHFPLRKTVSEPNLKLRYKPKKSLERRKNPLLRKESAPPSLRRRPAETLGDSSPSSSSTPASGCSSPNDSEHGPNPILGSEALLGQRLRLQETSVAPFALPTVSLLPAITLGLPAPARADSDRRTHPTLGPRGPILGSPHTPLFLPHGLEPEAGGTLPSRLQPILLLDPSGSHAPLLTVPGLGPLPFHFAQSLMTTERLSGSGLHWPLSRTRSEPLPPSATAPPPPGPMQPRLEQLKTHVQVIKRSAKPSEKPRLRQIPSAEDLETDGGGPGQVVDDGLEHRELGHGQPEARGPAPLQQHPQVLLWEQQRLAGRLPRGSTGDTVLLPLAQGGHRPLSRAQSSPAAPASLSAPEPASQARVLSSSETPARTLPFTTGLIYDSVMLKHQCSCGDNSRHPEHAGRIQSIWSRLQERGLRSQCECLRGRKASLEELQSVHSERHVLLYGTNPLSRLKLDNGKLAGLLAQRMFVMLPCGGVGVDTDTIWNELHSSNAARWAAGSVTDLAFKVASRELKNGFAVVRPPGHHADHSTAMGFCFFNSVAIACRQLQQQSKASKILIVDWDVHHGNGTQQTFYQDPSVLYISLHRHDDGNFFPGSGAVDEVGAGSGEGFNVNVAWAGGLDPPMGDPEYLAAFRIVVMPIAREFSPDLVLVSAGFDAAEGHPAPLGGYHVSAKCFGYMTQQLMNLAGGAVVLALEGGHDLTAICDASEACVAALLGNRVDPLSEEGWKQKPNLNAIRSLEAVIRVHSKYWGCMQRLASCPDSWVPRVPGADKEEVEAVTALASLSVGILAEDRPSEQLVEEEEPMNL

Histone deacetylase 4 = Histone deacetylase 4 (Homo sapiens, UniProt P56524); test: Inhibition of human recombinant HDAC4 incubated for 17 hrs
Histone deacetylase 11 = target: T6, Histone deacetylase 11 (Homo sapiens, UniProt Q96DB2); test: Inhibition of human recombinant HDAC11 incubated for 17 hrs
T6 sequence (Q96DB2 whole entry): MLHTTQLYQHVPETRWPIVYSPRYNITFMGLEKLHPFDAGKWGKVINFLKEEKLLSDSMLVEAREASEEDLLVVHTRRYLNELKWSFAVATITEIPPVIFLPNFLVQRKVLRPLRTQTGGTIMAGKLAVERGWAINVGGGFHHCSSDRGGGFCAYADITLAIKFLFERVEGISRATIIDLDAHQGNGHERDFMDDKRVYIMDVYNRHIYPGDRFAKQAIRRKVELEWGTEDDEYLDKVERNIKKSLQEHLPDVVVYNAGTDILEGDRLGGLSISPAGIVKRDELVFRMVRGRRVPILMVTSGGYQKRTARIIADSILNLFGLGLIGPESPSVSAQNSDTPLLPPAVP

T3 sequence (Q13547 whole entry): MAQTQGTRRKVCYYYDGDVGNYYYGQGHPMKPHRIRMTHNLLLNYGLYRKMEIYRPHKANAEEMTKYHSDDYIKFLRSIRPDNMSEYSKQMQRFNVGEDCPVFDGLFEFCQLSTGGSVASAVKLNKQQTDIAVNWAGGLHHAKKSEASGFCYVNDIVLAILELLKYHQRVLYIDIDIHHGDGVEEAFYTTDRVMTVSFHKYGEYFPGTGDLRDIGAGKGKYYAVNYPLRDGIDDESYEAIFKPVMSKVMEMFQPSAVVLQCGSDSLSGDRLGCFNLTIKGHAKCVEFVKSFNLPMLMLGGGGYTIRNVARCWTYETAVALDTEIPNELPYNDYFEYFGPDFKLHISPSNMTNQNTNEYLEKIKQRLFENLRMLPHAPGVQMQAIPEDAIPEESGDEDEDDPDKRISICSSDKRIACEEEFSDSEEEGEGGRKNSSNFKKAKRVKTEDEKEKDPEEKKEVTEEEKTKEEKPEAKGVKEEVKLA
Chain of Histone deacetylase 3 (O15379 whole entry): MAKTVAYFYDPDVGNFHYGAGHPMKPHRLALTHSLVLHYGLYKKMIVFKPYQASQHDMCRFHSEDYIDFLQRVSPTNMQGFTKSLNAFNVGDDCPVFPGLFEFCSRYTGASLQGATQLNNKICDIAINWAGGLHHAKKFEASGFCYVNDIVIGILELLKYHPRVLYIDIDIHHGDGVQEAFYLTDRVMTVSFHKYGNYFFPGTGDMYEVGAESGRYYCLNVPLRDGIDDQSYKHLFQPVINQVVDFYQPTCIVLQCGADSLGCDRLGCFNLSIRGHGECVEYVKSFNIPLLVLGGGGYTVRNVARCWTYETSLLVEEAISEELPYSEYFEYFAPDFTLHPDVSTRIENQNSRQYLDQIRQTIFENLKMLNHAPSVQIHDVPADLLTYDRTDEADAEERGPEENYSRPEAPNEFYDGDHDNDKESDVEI
Chain of Histone deacetylase 4 (P56524 whole entry): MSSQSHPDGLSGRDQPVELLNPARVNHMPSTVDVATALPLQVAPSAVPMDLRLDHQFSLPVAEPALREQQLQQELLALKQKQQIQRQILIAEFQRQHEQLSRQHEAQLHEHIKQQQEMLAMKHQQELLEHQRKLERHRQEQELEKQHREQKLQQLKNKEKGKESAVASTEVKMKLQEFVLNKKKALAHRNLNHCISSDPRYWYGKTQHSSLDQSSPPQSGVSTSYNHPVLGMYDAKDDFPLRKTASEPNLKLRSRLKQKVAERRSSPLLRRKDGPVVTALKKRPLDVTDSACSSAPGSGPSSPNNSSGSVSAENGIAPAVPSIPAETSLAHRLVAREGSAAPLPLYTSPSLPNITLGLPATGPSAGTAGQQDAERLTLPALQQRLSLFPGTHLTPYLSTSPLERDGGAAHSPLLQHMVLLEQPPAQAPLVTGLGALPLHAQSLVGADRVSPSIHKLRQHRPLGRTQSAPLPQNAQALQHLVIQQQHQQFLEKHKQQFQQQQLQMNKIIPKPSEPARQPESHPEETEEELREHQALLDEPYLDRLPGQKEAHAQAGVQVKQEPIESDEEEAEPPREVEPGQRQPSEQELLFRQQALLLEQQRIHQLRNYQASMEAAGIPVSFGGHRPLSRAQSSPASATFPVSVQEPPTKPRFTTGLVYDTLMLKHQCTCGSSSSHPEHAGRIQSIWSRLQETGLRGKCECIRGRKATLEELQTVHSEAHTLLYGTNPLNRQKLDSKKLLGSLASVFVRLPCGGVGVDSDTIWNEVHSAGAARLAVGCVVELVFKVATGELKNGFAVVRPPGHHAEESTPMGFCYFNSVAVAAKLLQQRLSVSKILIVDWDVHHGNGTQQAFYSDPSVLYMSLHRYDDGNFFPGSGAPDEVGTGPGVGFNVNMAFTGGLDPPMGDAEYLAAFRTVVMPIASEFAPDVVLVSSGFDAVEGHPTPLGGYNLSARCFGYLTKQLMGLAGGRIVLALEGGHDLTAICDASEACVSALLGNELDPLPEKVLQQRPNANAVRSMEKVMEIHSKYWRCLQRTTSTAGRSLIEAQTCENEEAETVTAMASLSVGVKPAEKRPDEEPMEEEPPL
Chain of Histone deacetylase 2 (Q92769 whole entry): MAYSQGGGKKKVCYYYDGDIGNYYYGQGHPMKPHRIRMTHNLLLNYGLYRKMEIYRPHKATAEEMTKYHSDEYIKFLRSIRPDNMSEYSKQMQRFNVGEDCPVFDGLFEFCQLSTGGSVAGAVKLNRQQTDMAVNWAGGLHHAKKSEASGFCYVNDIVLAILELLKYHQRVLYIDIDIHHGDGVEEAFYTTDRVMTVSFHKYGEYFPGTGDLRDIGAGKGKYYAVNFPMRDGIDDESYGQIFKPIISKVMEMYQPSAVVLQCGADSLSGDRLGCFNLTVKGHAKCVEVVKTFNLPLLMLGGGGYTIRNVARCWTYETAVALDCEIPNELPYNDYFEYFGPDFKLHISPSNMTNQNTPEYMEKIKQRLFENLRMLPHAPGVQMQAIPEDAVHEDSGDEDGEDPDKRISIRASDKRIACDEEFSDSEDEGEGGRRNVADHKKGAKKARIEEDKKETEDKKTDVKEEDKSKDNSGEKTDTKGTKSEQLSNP

SMILES: O=C(CS)NCCCCCC(=O)Nc1cccc2cccnc12
Tmax [1]: 0.5 h
half-life [2]: 1.1 h
Activity (N2a [3]): 20%
Papp A→B [4]: 150 nm/s
AUC [5]: 4.97 µM·h
Activity [6]: 20%
logD [7]: 2.64
Papp B→A [8]: 247 nm/s
CL/F [9]: 67.5 mL/min
solubility at 24 h [10]: 0.15 mg/mL (≈ 453 µM)
half-life [11]: 0.967 h
half-life [12]: 1.15 h
half-life [13]: 2.2 h
half-life [14]: 1.53 h
solubility at 24 h [15]: 1 mg/mL (≈ 3020 µM)
Activity (N2a [16]): 20%
half-life [17]: 1.32 h
IC50 [18]: 0.02 µM
Cmax [19]: 1.81 µM
half-life [20]: 1.38 h
half-life [21]: 1.2 h

SMILES: O=C(CS)NCCCCCC(=O)Nc1ccccc1
IC50 (Histone deacetylase 8 [22]): 200 µM

SMILES: N[C@@H](Cc1c[nH]c2ccccc12)C(=O)Nc1ccccc1-c1ccc(NC(=O)CCCCCNC(=O)CS)cc1
IC50 (Histone deacetylase 3): 4.33 µM
IC50 [25]: 0.66 µM
IC50 (Histone deacetylase 1 [26]): 7.09 µM
IC50 [27]: > 30 µM
IC50 (Histone deacetylase 2): > 30 µM
IC50 (Histone deacetylase 8 [28]): 11.3 µM

Second part, the compound after the results:

IC50 (Histone deacetylase 1 [23]): 2.2 µM
IC50 [24]: 0.1 µM
SMILES: O=C(/C=C/c1ccccc1Cl)NO

IC50 (Histone deacetylase 7): > 30 µM
IC50 (Histone deacetylase 4): > 30 µM
IC50 (Histone deacetylase 11): 0.432 µM
SMILES: Nc1ccc(F)cc1NC(=O)c1ccc(CNC(=O)/C=C/c2cccnc2)cc1
